Data: US6515022B2, “Use of inhaled retinoids in the treatment of lung diseases” (Sloan-Kettering Institute for Cancer Research, priority 1996, dated 2003)
In brackets after ≈: the same amount, converted by molar mass. Where two headings read alike, the source gives them in different places.

Assays:
[1] = Attempts at aqueous solutions (MOLECUSOL, ammonium salt); type: physicochemical; conditions: solutions containing 45% MOLECUSOL (modified beta cyclodextrin)
Text: Next, because of a report that the solubility of retinol (vitamin A) in water could be increased by addition of modified beta cyclodextrin (MOLECUSOL®), we next tried to prepare aqueous solutions of all-trans retinoic acid using MOLECUSOL® to enhance the solubility. […] Similarly, efforts to solubilize all-trans retinoic acid in aqueous solution using phosphatidylcholine and phosphatidylethanolamine produced a viscous colloid which was unsuited for aerosol administration.
We next tried to use salts of the retinoids to obtain a water-soluble product for aerosol generation. When all-trans retinoic acid is treated with ammonium hydroxide, a water-soluble ammonium salt is obtained. The pH of solutions of this salt is too high (pH >10), however, for direct administration as an aerosol. Neutralization of the solution after dissolution of the retinoid led to the formation of a precipitate, both in the presence and absence of added beta cyclodextrin.

[2] = Tissue/plasma concentrations after intra-tracheal instillation (HPLC); type: in vivo, Sprague-Dawley rats; conditions: Sprague-Dawley, other: intra-tracheal instillation, rat, 100 μg intra-tracheal instillation
Protocol: To evaluate the bioavailability of retinoids delivered by inhalation, 100 μl of an aqueous solution containing 100 μg of all-trans retinoic acid was administered via intra-tracheal instillation to 3 Sprague-Dawley rats, each weighing approximately 200 g. One rat was then sacrificed at three time points: 1, 6 and 24 hours after treatment. At the time of sacrifice, the chest cavity was opened, both lungs and trachea were removed en bloc, and the right and left lungs were separated by dissection. The liver was also removed, along with a sample of blood obtained by cardiac puncture. The blood sample was separated by centrifugation, and plasma plus each of the aforementioned tissues were frozen for later analysis. Subsequently, the tissue was homogenized, and the homogenized tissue and plasma were extracted with ethanol.

[3] = in vivo; conditions: rat
Protocol: The biodistribution and pharmacokinetics of an inhaled formulation of all-trans retinoic acid were compared to both intra-tracheal and intravenous administration. Anesthetized (i.p. pentobarbitol 50 mg/kg) male Sprague-Dawley rats weighing 300 to 700 grams were treated by administration of all-trans retinoic acid by inhalation, iv injection or intra-tracheal injection. Inhaled and intra-tracheal injections were given through an endotracheal tube placed under direct vision over a guidewire as described by Weksler et al., J. Appl. Physiol. 76: 1823-1825 (1994). IV doses were given by catheter injection via the right external jugular vein.
For inhalation, all-trans retinoic acid was solublized in hydrofluorocarbon 123 using tetramethylamunonium hydroxide to a concentration of 5 mg/ml, and combined with hydrofluoroalkane 134a as propellant, for a final concentration of 1.5 mg per 1.475 grams of propellant solution. […] An identical inhaler containing propellant mixture without drug was used as a control. […] This procedure was also repeated with an angiocatheter fitted to the apparatus. The catheter was subsequently rinsed with 10 ml of isopropanol, which was also collected. The three solutions were then assayed for all-trans retinoic acid concentrations in order to determine the amount of drug delivered through the apparatus, as well as any residual drug that was bound to the angiocatheter. We defined the area under the concentration times-time curve (AUC) for animals who received intra-tracheal all-trans retinoic acid as 100% effective dose delivery to the lung.
For injection, an aqueous solution of all-trans retinoic acid was prepared in 20% ethanol, 10% Tween 20 and 1 mM NH4OH, for a final concentration of […] all-trans retinoic acid per ml of solution. A mixture of 20% ethanol and 10% Tween 20 served as a control.
Animals were grouped into three experimental groups and two control groups. The control groups received no treatment or a control inhalant containing no all-trans retinoic acid. Animals in the groups receiving iv or intra-tracheal injections each received a single dose containing 250 μg all-trans retinoic acid. Animals in the group treated with the multidose inhaler each received three doses for a total of 147 μg of all-trans retinoic acid.

[4] = physchem; conditions: organic solvent or mixture, thermodynamic from solid
Protocol: Maximum solubility was determined by weighing the residue remaining after evaporation of the solvent.

[5] = physchem; conditions: HCFC-123 without alkylamine, organic solvent or mixture
[6] = Solubility in chlorofluorocarbons with alkylamine solubilizers
[7] = Histologic examination of lungs and trachea after single-dose administration; conditions: rat
Protocol: Animals were sacrificed at 5 minutes and at 1, 2, 4 and 6 hours, and blood and liver and lung tissue were harvested for analysis by high performance liquid chromatography (HPLC) and histology. In addition, animals receiving the inhalant were sacrificed at 24 hours post-treatment.

[8] = left lung, read-out: Left Lung concentration
[9] = liver, read-out: Liver concentration
[10] = plasma, read-out: Plasma concentration
[11] = right lung, read-out: Right Lung concentration
[12] = trachea, read-out: Trachea concentration
[13] = male, Sprague-Dawley, inhaled or intranasal, 147 ug
[14] = male, Sprague-Dawley, iv, 250 ug

## CC1=C(/C=C/C(C)=C/C=C/C(C)=C/C(=O)O)C(C)(C)CCC1 [all-trans retinoic acid]
[1]
  Solubility in aqueous solution: enhance the solubility of the all-trans retinoic acid to a useful level
[2]; [8]
  concentration at 1 hour: 928 ng/g
  concentration at 6 hours: 56 ng/g
  concentration at 24 hours: 22 ng/g
[2]; [9]
  concentration at 1 hour: 233 ng/g
  concentration at 6 hours: 24 ng/g
  concentration at 24 hours: 23 ng/g
[2]; [10]
  concentration at 1 hour: 123 ng/mL
  concentration at 24 hours: 178 ng/mL
[2]; [11]
  concentration at 1 hour: 773 ng/g
  concentration at 6 hours: 91 ng/g
  concentration at 24 hours: 21 ng/g
[2]; [12]
  concentration at 1 hour: 2860 ng/g
  concentration at 6 hours: 96 ng/g
  concentration at 24 hours: 30 ng/g
[3]; male, Sprague-Dawley
  Lung AUC, intra-tracheal route relative to aerosolized route: 100 times
  concentration at 1 hour: 68 ± 44 ng/mL
[3]; male, Sprague-Dawley, 250 ug
  AUC: 191 ng·h/mL
  Liver AUC: 2532 ng-hr/gm
  Lung AUC: 26972 ng-hr/gm
[3]; male, Sprague-Dawley, 250 ug, Liver T½
  half-life: 22 h
[3]; male, Sprague-Dawley, 250 ug, Lung T½
  half-life: 17.7 h
[3]; male, Sprague-Dawley, 250 ug, Plasma T½
  half-life: 1.9 h
[3]; [13]
  AUC: 171 ng·h/mL
  Liver AUC: 2307 ng-hr/gm
  Lung AUC: 262 ng-hr/gm
[3]; male, Sprague-Dawley, inhaled or intranasal, 147 ug, Lung T½
  half-life: 5.4 h
[3]; male, Sprague-Dawley, inhaled or intranasal, 147 ug, Plasma T½
  half-life: 3 h
[3]; male, Sprague-Dawley, inhaled or intranasal, 250 ug
  Total absorption (percent effective dose: inhaled AUC / intra-tracheal AUC): 1-2%
[3]; [14]
  AUC: 1380 ng·h/mL
  Liver AUC: 4724 ng-hr/gm
  Liver T½: 0.8 h
  Lung AUC: 11910 ng-hr/gm
[3]; male, Sprague-Dawley, iv, 250 ug, Liver T½
  half-life: 1 h
[3]; male, Sprague-Dawley, iv, 250 ug, Lung T½
  half-life: 1.9 h
[3]
  Lung AUC, intra-tracheal route relative to iv route: twice
[4]; ethyl acetate
  solubility: 10000 µg/mL (≈ 33.3 mM)
[4]; methylene chloride
  solubility: 5000 µg/mL (≈ 16.6 mM)
[5]
  solubility: ~2000 µg/mL (≈ 6.66 mM)
[6]; HCFC-123, alkylamine 1.44 mg/ml
  Maximum Solubility: ˜17 mg/ml
[6]; HCFC-123, alkylamine 7.22 mg/ml
  Maximum Solubility: ˜44 mg/ml
[7]
  Histologic examination of lungs and traches: no focal irritation attributable to the drug
